Test results taken from US12173018B2, “Penicillin-binding protein inhibitors” (priority 2018, dated 2024).
Values after ≈ are worked out from the molar mass of the structure shown.

Experiments:
[1] = target: E. coli PBP3 (Escherichia coli (strain K12), UniProt P0AD68); experiment: E. coli PBP3 Bocillin-FL fluorescence polarization competition binding assay
Procedure, shortened: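 Polarization at 490/520 nm was monitored for 60 minutes in pH 8.0 Hepes buffer containing 300 mM NaCl and 5% glycerol, with compound spanning 0–1000 μM.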

[2] = target: E. coli PBP1a (Escherichia coli (strain K12), UniProt P02918); experiment: Radioligand competition binding assay with 14C-labeled boronic acid probe, PBP1a
Chain of E. coli PBP1a (P02918 whole entry): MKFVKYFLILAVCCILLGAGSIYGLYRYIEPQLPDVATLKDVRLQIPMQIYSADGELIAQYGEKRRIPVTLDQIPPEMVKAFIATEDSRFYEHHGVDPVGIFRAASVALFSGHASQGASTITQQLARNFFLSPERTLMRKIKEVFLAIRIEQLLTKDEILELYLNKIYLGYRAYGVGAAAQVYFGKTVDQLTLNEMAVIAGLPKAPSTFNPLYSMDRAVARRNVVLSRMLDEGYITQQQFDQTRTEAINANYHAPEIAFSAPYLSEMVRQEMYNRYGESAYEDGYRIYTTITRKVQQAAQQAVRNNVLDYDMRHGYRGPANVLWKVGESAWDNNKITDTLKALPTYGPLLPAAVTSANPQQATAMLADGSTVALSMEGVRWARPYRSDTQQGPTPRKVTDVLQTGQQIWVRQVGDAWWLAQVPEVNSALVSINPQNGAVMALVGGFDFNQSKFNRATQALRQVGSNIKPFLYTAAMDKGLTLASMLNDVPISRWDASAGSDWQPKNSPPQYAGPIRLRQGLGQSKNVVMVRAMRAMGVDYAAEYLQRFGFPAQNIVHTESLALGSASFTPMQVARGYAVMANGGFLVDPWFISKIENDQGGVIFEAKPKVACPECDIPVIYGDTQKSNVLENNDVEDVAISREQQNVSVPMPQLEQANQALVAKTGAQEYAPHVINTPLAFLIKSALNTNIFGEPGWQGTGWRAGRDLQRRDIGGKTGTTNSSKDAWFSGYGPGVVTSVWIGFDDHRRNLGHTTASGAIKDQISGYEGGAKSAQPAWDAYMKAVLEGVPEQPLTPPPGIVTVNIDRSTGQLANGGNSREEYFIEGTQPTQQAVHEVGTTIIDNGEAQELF
Description: To determine the ability of boronic acid-based test PBP inhibitors to bind Penicillin Binding Proteins (PBPs), a radio-labelled boronic acid PBP inhibitor
[drawing 751] was used in competition binding assays to determine boronic acid PBP inhibitor binding to PBP1a or PBP1b from Escherichia coli. PBP1a and PBP1b were purified as described previously (Bertsche, U.; et al., J. Biol. Chem. 2005, 280 (45), 38096-38101; Born, P.; et al., J. Biol. Chem. 2006. 281 (37), 26985-26993). To establish assay conditions for competition binding, an enzyme titration/saturation binding experiment was performed. Saturation binding was performed in a buffer comprised of 20 mM Tris (pH 7.5), 500 mM NaCl and 0.1% (v/v) TritonX-100, with PBP1a/PBP1b at a final concentration of 0.1 μM and Compound A at final concentrations ranging from 0-100 μM. Mixtures were incubated for 60 minutes, then applied to Zeba Spin Desalting columns or plates (ThermoFisher Scientific) and centrifuged at 1000-1500×g for 2 minutes. The flow through, containing PBP bound with Compound A, was recovered and 100 μL mixed with 5 mL of UltimaGold liquid scintillation cocktail (Perkin Elmer), and the radioactivity counted using a Beckman Coulter LS 6500 Multipurpose scintillation counter. PBP binding of Compound A approached saturation at 20 μM of ^14C-labeled probe. The competition binding assay was validated using the beta-lactam ampicillin, with Compound A at a final concentration of 20 μM, PBP1a/PBP1b at a final concentration of 0.1 μM. PBP1a/PBP1b was incubated with ampicillin in a 96-well microplate for 60 minutes, then Compound A was added and the mixtures incubated for an additional 60 minutes. The mixtures were then applied to Zeba Spin desalting plates and centrifuged at 1000×g for 2 minutes. The flow through was recovered and 100 μl mixed with 5 ml of UltimaGold liquid scintillation cocktail and the radioactivity counted. […] Binding assays with boronic acid PBP inhibitors were performed in an identical fashion. The potency of boronic acid PBP inhibitors was reported as the EC50 value.

[3] = tested on: engineered strain of Escherichia coli harboring CTX-M15; experiment: microbe, parasite or virus in culture; type: cell-based; conditions: Escherichia coli, read-out: Microbiological Activity (MIC in mg/L), E. coli DH5α/pLBII-CTX-M15, engineered strain producing CTX-M15
[4] = target: E. coli PBP2 (Escherichia coli (strain K12), UniProt P0AD65); experiment: E. coli PBP2 Bocillin-FL fluorescence polarization competition binding assay; conditions: fluorescence polarization competition binding with Bocillin-FL; read-out: E. coli K12 PBP2 Potency (EC50)
Chain of E. coli PBP2 (P0AD65 whole entry): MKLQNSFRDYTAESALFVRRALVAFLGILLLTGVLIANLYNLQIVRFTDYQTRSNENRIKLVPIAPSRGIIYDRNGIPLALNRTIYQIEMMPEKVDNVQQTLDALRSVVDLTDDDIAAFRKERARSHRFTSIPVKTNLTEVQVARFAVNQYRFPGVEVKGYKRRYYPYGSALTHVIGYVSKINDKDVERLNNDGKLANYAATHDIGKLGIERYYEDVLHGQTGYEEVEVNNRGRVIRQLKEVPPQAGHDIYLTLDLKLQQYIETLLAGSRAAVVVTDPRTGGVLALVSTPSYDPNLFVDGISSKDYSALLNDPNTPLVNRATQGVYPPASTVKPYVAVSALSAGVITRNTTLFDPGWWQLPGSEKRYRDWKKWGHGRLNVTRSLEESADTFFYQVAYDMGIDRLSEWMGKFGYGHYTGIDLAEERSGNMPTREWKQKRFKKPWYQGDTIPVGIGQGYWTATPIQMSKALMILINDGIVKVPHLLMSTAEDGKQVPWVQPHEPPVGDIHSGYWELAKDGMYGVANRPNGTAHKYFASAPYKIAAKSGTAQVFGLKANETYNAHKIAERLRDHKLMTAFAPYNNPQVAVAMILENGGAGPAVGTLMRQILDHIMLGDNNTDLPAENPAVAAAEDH
Description: To determine the ability of boronic acid-based test PBP inhibitors to bind Penicillin Binding Proteins (PBPs), Bocillin-FL (fluorescently-labeled penicillin V; ThermoFisher Scientific) was used in a fluorescence polarization (FP) competition binding assay to assess inhibitor binding to PBP2, PBP3 or PBP4 from Escherichia coli. PBPs were cloned and purified as described previously (King, D. T, et al., ACS Infectious Diseases 2015, 1, 175-184). To establish assay conditions for competition binding, an enzyme titration/saturation binding experiment was initially performed. Bocillin-FL was prepared at 0.2 μM in a buffer comprised of 50 mM Hepes (pH 8.0), 300 mM NaCl and 5% (v/v) glycerol. Saturation binding was performed by mixing 40 μl of PBP solutions ranging in concentrations from 0-12 μM with 40 μl of the 0.2 μM Bocillin-FL solution, in individual wells of a black 384-well microplate. FP was measured immediately upon mixing (Excitation, 490 nm; Emission, 520 nm; g-factor, 0.96), using a Cytation3 (BioTek) microplate reader and measured continuously for up to 120 minutes. […] For all PBPs the FP signal approached saturation with 1.5 μM PBP (final concentration). […] Assays (80 μl final volume) were performed with PBPs at a final concentration of 1.5 μM, Bocillin-FL at 0.1 μM and beta-lactam concentrations that ranged from 0-1000 μM. […] Bocillin-FL was added and the FP immediately measured for 60 minutes (90 minutes for PBP2). The beta-lactam potency was reported as the concentration of beta-lactam required to reduce binding of Bocillin-FL by […] (EC50). […] Binding assays for boronic acid PBP inhibitors were performed in an identical fashion.

[5] = tested on: N. gonorrhoeae ATCC 49226; experiment: Liquid broth MIC, N. gonorrhoeae ATCC 49226; type: cell-based; conditions: Neisseria gonorrhoeae, ATCC49226; N. gonorrhoeae ATCC 49226, liquid broth; read-out: Minimum Inhibitory Concentration, N. gonorrhoeae ATCC 49226
Procedure, shortened: (§1)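 Colonies sub-cultured 24 h earlier on supplemented GC agar are suspended in broth, adjusted by optical density at 600 nm and added to 2-fold serial compound dilutions at 5×10^5 CFU/mL. Plates incubate 40-42 hours at 36° C with 5% CO2 before visual MIC reading.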

[6] = tested on: N. gonorrhoeae FA1090; experiment: Liquid broth MIC, N. gonorrhoeae FA1090; type: cell-based; conditions: Neisseria gonorrhoeae; N. gonorrhoeae FA1090, liquid broth; read-out: Minimum Inhibitory Concentration, N. gonorrhoeae FA1090
Procedure, shortened: as §1

[7] = tested on: N. gonorrhoeae WHO F; experiment: Liquid broth MIC, N. gonorrhoeae WHO F; type: cell-based; conditions: Neisseria gonorrhoeae; N. gonorrhoeae WHO F, liquid broth; read-out: Minimum Inhibitory Concentration, N. gonorrhoeae WHO F
Procedure, shortened: as §1

[8] = tested on: N. gonorrhoeae FA19; experiment: Liquid broth MIC, N. gonorrhoeae FA19; type: cell-based; conditions: Neisseria gonorrhoeae; N. gonorrhoeae FA19, liquid broth; read-out: Minimum Inhibitory Concentration, N. gonorrhoeae FA19
Procedure, shortened: as §1

[9] = target: E. coli PBP1b (Escherichia coli (strain K12), UniProt P02919); experiment: Radioligand competition binding assay with 14C-labeled boronic acid probe, PBP1b
Chain of E. coli PBP1b (P02919 whole entry): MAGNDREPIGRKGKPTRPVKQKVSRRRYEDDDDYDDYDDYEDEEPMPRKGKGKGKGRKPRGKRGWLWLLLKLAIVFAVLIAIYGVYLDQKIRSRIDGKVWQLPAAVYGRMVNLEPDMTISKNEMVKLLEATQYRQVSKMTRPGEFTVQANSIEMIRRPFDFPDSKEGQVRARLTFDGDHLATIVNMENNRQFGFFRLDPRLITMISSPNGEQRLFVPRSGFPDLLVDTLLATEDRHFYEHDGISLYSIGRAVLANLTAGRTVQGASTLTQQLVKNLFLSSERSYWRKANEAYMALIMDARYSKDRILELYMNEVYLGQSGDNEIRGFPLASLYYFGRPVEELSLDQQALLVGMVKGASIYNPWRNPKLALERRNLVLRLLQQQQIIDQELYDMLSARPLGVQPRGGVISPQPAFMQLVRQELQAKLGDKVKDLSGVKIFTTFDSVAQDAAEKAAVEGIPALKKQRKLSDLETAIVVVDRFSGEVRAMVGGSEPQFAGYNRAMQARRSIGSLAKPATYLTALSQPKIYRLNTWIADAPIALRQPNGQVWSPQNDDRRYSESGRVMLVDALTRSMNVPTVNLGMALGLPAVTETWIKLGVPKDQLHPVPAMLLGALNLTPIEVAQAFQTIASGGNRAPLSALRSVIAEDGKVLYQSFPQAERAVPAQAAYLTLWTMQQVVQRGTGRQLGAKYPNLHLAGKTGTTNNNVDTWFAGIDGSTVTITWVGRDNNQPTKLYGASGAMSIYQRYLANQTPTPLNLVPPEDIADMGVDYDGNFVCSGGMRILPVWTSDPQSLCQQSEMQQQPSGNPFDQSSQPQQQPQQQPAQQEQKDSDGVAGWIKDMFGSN

[10] = tested on: P. aeruginosa (ΔmexAB-oprM); experiment: microbe, parasite or virus in culture; type: cell-based; conditions: Pseudomonas aeruginosa, read-out: MIC P. aeruginosa ΔmexAB-OprM
Procedure, shortened: (§2)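 Following CLSI guidance, growth inhibition is measured in Mueller-Hinton broth with divalent cations. Inoculum 5×10^5 CFU/mL; incubation 16-20 hours, 37° C; endpoint is visual absence of growth.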

[11] = tested on: P. aeruginosa ATCC 35151; experiment: microbe, parasite or virus in culture; type: cell-based; conditions: Pseudomonas aeruginosa, ATCC35151; hyper-permeable P. aeruginosa ATCC 35151; read-out: MIC P. aeruginosa ATCC 35151
Procedure, shortened: as §2

[12] = tested on: P. aeruginosa PAO1; experiment: Broth microdilution MIC, P. aeruginosa PAO1; type: cell-based; conditions: Pseudomonas aeruginosa; P. aeruginosa PAO1, broth microdilution; read-out: MIC P. aeruginosa PAO1
Procedure, shortened: as §2

[13] = tested on: A. baumannii ATCC 19606; experiment: Broth microdilution MIC, A. baumannii ATCC 19606; type: cell-based; conditions: Acinetobacter baumannii, ATCC19606; A. baumannii ATCC 19606, broth microdilution; read-out: MIC A. baumannii ATCC 19606
Protocol: To determine the ability of test compounds to potentiate the inhibition of the growth of bacterial strains, classic cell based broth microdilution minimum inhibitory concentration (MIC) assays were employed. MIC assays are performed according to CLSI methods except where otherwise noted (CLSI, 2011 and CLSI, 2009). The reference type strain E. coli ATCC 25922, the wild-type parent strain E. coli AG100, the hyper-permeable E. coli 901C and E. coli D22 and the E. coli AG100A strain lacking the acrAB efflux pump encoding genes were used to determine the ability of the PBP inhibitors to penetrate the outer membrane of gram-negative bacteria and inhibit bacterial growth. […] The P. aeruginosa PAO1, P. aeruginosa ATCC 27853 and A. baumannii ATCC 19606, along with the hyper-permeable P. aeruginosa ATCC 35151 and an engineered efflux pump-compromised strain of P. aeruginosa (ΔmexAB-oprM) were used to determine the ability of PBP inhibitors to penetrate the outer membrane of P. aeruginosa and A. baumannii and assess antibacterial activity against these important gram-negative organisms.
Briefly, cryo-preserved bacterial cultures of challenge strains are streaked for isolation on appropriate agar medium, in this case Mueller Hinton II agar. Following incubation to allow growth of the colonies, plates are sealed with parafilm and stored refrigerated for up to two weeks. For preparation of assay inoculum and to ensure low variability, at least 5 colonies are picked from the agar plates with an inoculating loop and aseptically transferred to a culture tube containing 3 mL of Mueller-Hinton Broth (supplemented with divalent cations to required levels based on Manufacturers' certification). The broth culture is grown for 3-5 hours at 37° C. with shaking at 200 rpm. Meanwhile, 2-fold serial dilutions of test compounds are conducted in a 96 well plate with a final volume of 75 μL per well at 2-fold the final desired concentration. After the dilution plates are set up the growing cultures are then diluted in a cuvette containing MH II broth and the optical density is measured at 600 nm. The Inoculum is diluted such that 75 μL of this culture in Mueller-Hinton Broth results in a starting bacterial concentration of 5×10^5 CFU/mL when added to the dilution plates. The plates are incubated for 16-20 hours at 37° C. The MIC values are read visually as the lowest concentration well with no bacterial growth.

Chain of E. coli PBP3 (P0AD68 whole entry): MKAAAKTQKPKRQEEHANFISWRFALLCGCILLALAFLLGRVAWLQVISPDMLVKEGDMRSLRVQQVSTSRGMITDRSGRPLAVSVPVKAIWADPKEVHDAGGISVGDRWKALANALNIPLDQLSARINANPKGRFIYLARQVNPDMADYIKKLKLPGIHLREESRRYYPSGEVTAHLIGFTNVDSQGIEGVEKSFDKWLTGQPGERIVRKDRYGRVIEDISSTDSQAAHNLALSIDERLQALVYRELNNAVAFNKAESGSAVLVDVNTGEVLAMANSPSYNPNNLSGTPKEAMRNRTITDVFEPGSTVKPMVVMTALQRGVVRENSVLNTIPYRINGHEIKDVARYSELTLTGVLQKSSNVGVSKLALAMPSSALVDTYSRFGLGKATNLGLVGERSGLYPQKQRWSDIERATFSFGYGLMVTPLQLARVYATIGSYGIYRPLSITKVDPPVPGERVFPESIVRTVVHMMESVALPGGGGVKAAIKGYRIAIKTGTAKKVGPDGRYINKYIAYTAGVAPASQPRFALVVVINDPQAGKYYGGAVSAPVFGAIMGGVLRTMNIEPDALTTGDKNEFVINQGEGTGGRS

Row | Compound | EC50 [1] [µM] | EC50 [2] [µM] | MIC [3] [mg/L] | EC50 [4] [µM] | further results
1 | CCN1CCN(C(=O)NC(C(=O)N[C@H]2Cc3cccc(C(=O)O)c3OB2O)C(O)c2ccc(O)c(O)c2)C(=O)C1=O (stereo partly drawn) [Example 46, (3R)-3-(3-(3,4-dihydroxyphenyl)-2-(4-ethyl-2,3-dioxopiperazine-1-carboxamido)-3-hydroxypropanamido)-2-hydroxy-3,4-dihydro-2H-benzo[e][1,2]oxaborinine-8-carboxylic acid] | 30 to 500 | < 10 |  |  | 
2 | CCN1CCN(C(=O)NC(C(=O)N[C@H]2Cc3cccc(C(=O)O)c3OB2O)c2ccc(OCCF)cc2)C(=O)C1=O (stereo partly drawn) [Example 76, (3R)-3-(2-(4-ethyl-2,3-dioxopiperazine-1-carboxamido)-2-(4-(2-fluoroethoxy)phenyl)acetamido)-2-hydroxy-3,4-dihydro-2H-benzo[e][1,2]oxaborinine-8-carboxylic acid] | 30 to 500 | < 10 | 128 to 256 (≈ 224 to 449 µM) |  | 
3 | CCN1CCN(C(=O)NC(C(=O)N[C@H]2Cc3cccc(C(=O)O)c3OB2O)c2ccc(O)nc2F)C(=O)C1=O (stereo partly drawn) [Example 86, (3R)-3-(2-(4-ethyl-2,3-dioxopiperazine-1-carboxamido)-2-(2-fluoro-6-hydroxypyridin-3-yl)acetamido)-2-hydroxy-3,4-dihydro-2H-benzo[e][1,2]oxaborinine-8-carboxylic acid] | 30 to 500 | < 10 | 128 to 256 (≈ 236 to 471 µM) |  | 
4 | CCCN1CCN(C(=O)NC(C(=O)N[C@H]2Cc3cccc(C(=O)O)c3OB2O)c2cnc(N)s2)C(=O)C1=O (stereo partly drawn) [Example 101, (3R)-3-(2-(2-aminothiazol-5-yl)-2-(2,3-dioxo-4-propylpiperazine-1-carboxamido)acetamido)-2-hydroxy-3,4-dihydro-2H-benzo[e][1,2]oxaborinine-8-carboxylic acid] | 30 to 500 |  | 32 to 64 (≈ 58.8 to 118 µM) | > 500 | MIC [5]: 1 to 2 mg/L (≈ 1.84 to 3.67 µM); MIC [6]: < 0.125 mg/L; MIC [7]: < 0.125 mg/L; MIC [8]: 1 to 2 mg/L (≈ 1.84 to 3.67 µM)
5 | CCN1CCN(C(=O)NC(C(=O)N[C@H]2Cc3cccc(C(=O)O)c3OB2O)c2ccc(F)cn2)C(=O)C1=O (stereo partly drawn) [Example 114, (3R)-3-(2-(4-ethyl-2,3-dioxopiperazine-1-carboxamido)-2-(5-fluoropyridin-2-yl)acetamido)-2-hydroxy-3,4-dihydro-2H-benzo[e][1,2]oxaborinine-8-carboxylic acid] | 30 to 500 |  | 128 to 256 (≈ 243 to 486 µM) | > 500 | EC50 [9]: > 100 µM
6 | CCN1CCN(C(=O)N[C@@H](C(=O)N[C@H]2Cc3ccc(F)c(C(=O)O)c3OB2O)c2ccsc2)C(=O)C1=O [Example 138, (R)-3-((R)-2-(4-ethyl-2,3-dioxopiperazine-1-carboxamido)-2-(thiophen-3-yl)acetamido)-7-fluoro-2-hydroxy-3,4-dihydro-2H-benzo[e][1,2]oxaborinine-8-carboxylic acid] | < 30 |  |  | > 500 | MIC [10]: 32 to 64 mg/L; MIC [11]: 0.5 to 1 mg/L; MIC [12]: > 128 mg/L; MIC [13]: > 128 mg/L
7 | CCN1CCN(C(=O)NC(C(=O)N[C@H]2Cc3ccc(F)c(C(=O)O)c3OB2O)c2cccs2)C(=O)C1=O (stereo partly drawn) [Example 142, (3R)-3-(2-(4-ethyl-2,3-dioxopiperazine-1-carboxamido)-2-(thiophen-2-yl)acetamido)-7-fluoro-2-hydroxy-3,4-dihydro-2H-benzo[e][1,2]oxaborinine-8-carboxylic acid] | 30 to 500 |  |  | > 500 | MIC [5]: 0.25 to 0.5 mg/L (≈ 0.47 to 0.939 µM); MIC [6]: < 0.125 mg/L; MIC [7]: < 0.125 mg/L; MIC [8]: 1 to 2 mg/L (≈ 1.88 to 3.76 µM)
